US20220380829A1, “Method of Diagonosizing Pathogens and their Antimicrobial Susceptibility” (HANGZHOU DIAN MEDICAL LABORATORY CO., LTD., priority 2019, published 2022)
Starred links: 1 amine or outer side, 2 acyl side, 3 side chain; linkers in the order of their positions; H or OH if unused. Positions of bridges follow the written chain, without caps; N, C: chain ends. Non-standard residues stand in square brackets, D forms with d. Residues, ends and D or L forms follow the SMILES beside them. *: point of attachment. hTyr(3S-OH,4S-OH,3'-OSO3H) = N[C@H](C(=O)O)[C@H](O)[C@@H](O)c1ccc(O)c(OS(=O)(=O)O)c1; Orn(4R-OH,5R-OH) = O=C([C@H](C[C@@H](O)[C@@H](O)N[*:3])N[*:1])[*:2]; Pro(3S-OH,4S-Me) = C[C@H]1CN[C@H](C(=O)O)[C@H]1O; X1 = CCCCCOc1ccc(-c2cc(-c3ccc(C(=O)*)cc3)no2)cc1; Gln(3R-OH) = NC(=O)C[C@@H](O)[C@H](N)C(=O)O; Hyp = O=C(O)[C@@H]1C[C@@H](O)CN1

Tests used:
Assay type in all cases: cell-based
Candida tropicalis = experiment: Broth microdilution (M27-A3, M27-S4), gold standard culture-based AST
Candida albicans = experiment: as above; details: for Results by broth microdilution method: R: number of resistant among 12 blinds; for Results by broth microdilution method: S: number of susceptible among 12 blinds
Experimental: Step 1. Sample collection and drug susceptibility verification: 120 clinical Candida albicans isolates were collected from 31 hospitals across china in a period between September 2015 and January 2019. All isolates were tested for drug susceptibility using broth microdilution method following the M27-A3 and M27-S4 guidelines of NCCLS, and the results were used as the gold standard (culture-based AST).

Acinetobacter baumannii = experiment: VITEK2 Compact AST (AST-N335 cards), gold standard culture-based AST
Experimental: Step 1. Drug susceptibility verification: The Acinetobacter baumannii isolates were tested for drug susceptibility using bioMérieux Vitek2 Compact System and AST-N335 cards, and the results were used as the gold standard (culture-based AST).

Enterococcus faecalis = experiment: VITEK2 Compact AST (AST-P639 cards), gold standard culture-based AST
Streptococcus pneumoniae = experiment: VITEK2 Compact AST (AST-GP68 cards) with penicillin disc diffusion, gold standard culture-based AST
Experimental: (§1) Step 1. Drug susceptibility verification: The Streptococcus pneumoniae isolates were tested for drug susceptibility using bioMérieux Vitek2 Compact System and AST-GP68 cards, and specifically, the susceptibility of penicillin was double checked by disc diffusion method (OXOID, CT0043B), and the combined results were used as the gold standard (culture-based AST).
as §1, with “Sample collection and drug” for “Drug”, “48 clinical” for “The”, “pneumoniae isolates were collected from 18 hospitals across china in a period between May 2017 and October 2019. All” for “pneumoniae”, “card,” for “cards,”

Klebsiella pneumoniae = experiment: VITEK2 Compact AST (AST-GN13/GN334 cards), gold standard culture-based AST; details: for Resistance profiles by VITEK2: R: number of resistant among 24 blinds; for Resistance profiles by VITEK2: S: number of susceptible among 24 blinds
Source text: Step 1. Sample collection and drug susceptibility verification: 240 clinical Klebsiella pneumoniae isolates were collected from 23 hospitals across china in a period between January 2018 and March 2019.

[1] = Resistance profile classification A
[2] = Resistance profile classification B
[3] = Resistance profile classification C
[4] = Resistance profile classification D
[5] = Resistance profile classification G
[6] = Resistance profile classification H
[7] = Resistance profile classification I
[8] = Resistance profile classification J
[9] = Resistance profile classification K
[10] = Resistance profile classification L
[11] = Resistance profile classification M
[12] = Resistance profile classification S

## Nc1nc(=O)[nH]cc1F [5-FC]
Candida tropicalis; blind-1
  Resistance profiles by broth microdilution (the gold standard): S
Candida tropicalis; blind-2
  Resistance profiles by broth microdilution (the gold standard): S
Candida tropicalis; blind-3
  Resistance profiles by broth microdilution (the gold standard): S
Candida tropicalis; blind-4
  Resistance profiles by broth microdilution (the gold standard): S
Candida tropicalis; blind-5
  Resistance profiles by broth microdilution (the gold standard): S
Candida tropicalis; blind-6
  Resistance profiles by broth microdilution (the gold standard): S

## Nc1nc(=O)[nH]cc1F [5-Fluorocytosine]
Candida albicans
  Results by broth microdilution method: R: 4
  Results by broth microdilution method: S: 8

## C[C@@H]1[C@H](O)[C@@H](C)/C=C/C=C/C=C/C=C/C=C/C=C/C=C/[C@H](O[C@@H]2O[C@H](C)[C@@H](O)[C@H](N)[C@@H]2O)C[C@@H]2O[C@](O)(C[C@@H](O)C[C@@H](O)[C@H](O)CC[C@@H](O)C[C@@H](O)CC(=O)O[C@H]1C)C[C@H](O)[C@H]2C(=O)O [AMB]
Candida tropicalis; blind-1
  Resistance profiles by broth microdilution (the gold standard): S
Candida tropicalis; blind-2
  Resistance profiles by broth microdilution (the gold standard): S
Candida tropicalis; blind-3
  Resistance profiles by broth microdilution (the gold standard): S
Candida tropicalis; blind-4
  Resistance profiles by broth microdilution (the gold standard): S
Candida tropicalis; blind-5
  Resistance profiles by broth microdilution (the gold standard): S
Candida tropicalis; blind-6
  Resistance profiles by broth microdilution (the gold standard): S

## C[C@@H]1[C@H](O)[C@@H](C)/C=C/C=C/C=C/C=C/C=C/C=C/C=C/[C@H](O[C@@H]2O[C@H](C)[C@@H](O)[C@H](N)[C@@H]2O)C[C@@H]2O[C@](O)(C[C@@H](O)C[C@@H](O)[C@H](O)CC[C@@H](O)C[C@@H](O)CC(=O)O[C@H]1C)C[C@H](O)[C@H]2C(=O)O [Amphotericin B]
Candida albicans
  Results by broth microdilution method: R: 0
  Results by broth microdilution method: S: 12

## CC[C@H](C)C[C@H](C)CCCCCCCCC(=O)N[C@H]1C[C@@H](O)[C@@H](NCCN)NC(=O)[C@@H]2[C@@H](O)CCN2C(=O)[C@H]([C@H](O)CCN)NC(=O)[C@H]([C@H](O)[C@@H](O)c2ccc(O)cc2)NC(=O)[C@@H]2C[C@@H](O)CN2C(=O)[C@H]([C@@H](C)O)NC1=O [CAS]
Candida tropicalis; blind-1
  Resistance profiles by broth microdilution (the gold standard): S
Candida tropicalis; blind-2
  Resistance profiles by broth microdilution (the gold standard): S
Candida tropicalis; blind-3
  Resistance profiles by broth microdilution (the gold standard): S
Candida tropicalis; blind-4
  Resistance profiles by broth microdilution (the gold standard): S
Candida tropicalis; blind-5
  Resistance profiles by broth microdilution (the gold standard): S
Candida tropicalis; blind-6
  Resistance profiles by broth microdilution (the gold standard): S

## CC[C@H](C)C[C@H](C)CCCCCCCCC(=O)N[C@H]1C[C@@H](O)[C@@H](NCCN)NC(=O)[C@@H]2[C@@H](O)CCN2C(=O)[C@H]([C@H](O)CCN)NC(=O)[C@H]([C@H](O)[C@@H](O)c2ccc(O)cc2)NC(=O)[C@@H]2C[C@@H](O)CN2C(=O)[C@H]([C@@H](C)O)NC1=O [Caspofungin]
Candida albicans
  Results by broth microdilution method: R: 0
  Results by broth microdilution method: S: 12

## OC(Cn1cncn1)(Cn1cncn1)c1ccc(F)cc1F [Fluconazole]
Candida albicans
  Results by broth microdilution method: R: 2
  Results by broth microdilution method: S: 10

## CCC(C)n1ncn(-c2ccc(N3CCN(c4ccc(OCC5COC(Cn6cncn6)(c6ccc(Cl)cc6Cl)O5)cc4)CC3)cc2)c1=O (stereo not drawn) [ITR]
Candida tropicalis; blind-1
  Resistance profiles by broth microdilution (the gold standard): R
Candida tropicalis; blind-2
  Resistance profiles by broth microdilution (the gold standard): S
Candida tropicalis; blind-3
  Resistance profiles by broth microdilution (the gold standard): R
Candida tropicalis; blind-4
  Resistance profiles by broth microdilution (the gold standard): R
Candida tropicalis; blind-5
  Resistance profiles by broth microdilution (the gold standard): S
Candida tropicalis; blind-6
  Resistance profiles by broth microdilution (the gold standard): S

## CCC(C)n1ncn(-c2ccc(N3CCN(c4ccc(OCC5COC(Cn6cncn6)(c6ccc(Cl)cc6Cl)O5)cc4)CC3)cc2)c1=O (stereo not drawn) [Itraconazole]
Candida albicans
  Results by broth microdilution method: R: 2
  Results by broth microdilution method: S: 10

## CCCCCOc1ccc(-c2cc(-c3ccc(C(=O)N[C@H]4C[C@@H](O)[C@@H](O)NC(=O)[C@@H]5[C@@H](O)[C@@H](C)CN5C(=O)[C@H]([C@H](O)CC(N)=O)NC(=O)[C@H]([C@H](O)[C@@H](O)c5ccc(O)c(OS(=O)(=O)O)c5)NC(=O)[C@@H]5C[C@@H](O)CN5C(=O)[C@H]([C@@H](C)O)NC4=O)cc3)no2)cc1 [Micafungin] (X1-[Orn(4R-OH,5R-OH)]T[Hyp][hTyr(3S-OH,4S-OH,3'-OSO3H)][Gln(3R-OH)][Pro(3S-OH,4S-Me)]; lactam 1-C)
Candida albicans
  Results by broth microdilution method: R: 0
  Results by broth microdilution method: S: 12

## C[C@@H](c1ncncc1F)[C@](O)(Cn1cncn1)c1ccc(F)cc1F [VOR]
Candida tropicalis; blind-1
  Resistance profiles by broth microdilution (the gold standard): R
Candida tropicalis; blind-2
  Resistance profiles by broth microdilution (the gold standard): S
Candida tropicalis; blind-3
  Resistance profiles by broth microdilution (the gold standard): R
Candida tropicalis; blind-4
  Resistance profiles by broth microdilution (the gold standard): R
Candida tropicalis; blind-5
  Resistance profiles by broth microdilution (the gold standard): S
Candida tropicalis; blind-6
  Resistance profiles by broth microdilution (the gold standard): S

## C[C@@H](c1ncncc1F)[C@](O)(Cn1cncn1)c1ccc(F)cc1F [Voriconazole]
Candida albicans
  Results by broth microdilution method: R: 2
  Results by broth microdilution method: S: 10

## CCN1CCN(C(=O)N[C@@H](C(=O)N[C@@H]2C(=O)N3[C@@H]2SC(C)(C)[C@@H]3C(=O)O)c2ccccc2)C(=O)C1=O [pipercillin, piperacillin]
Acinetobacter baumannii; [1]
  Suscepibility of Acinetobacter baumannii to 12 antibacterial drugs: R
Acinetobacter baumannii; [2]
  Suscepibility of Acinetobacter baumannii to 12 antibacterial drugs: R
Acinetobacter baumannii; [3]
  Suscepibility of Acinetobacter baumannii to 12 antibacterial drugs: R
Acinetobacter baumannii; [4]
  Suscepibility of Acinetobacter baumannii to 12 antibacterial drugs: R
Acinetobacter baumannii; Resistance profile classification E
  Suscepibility of Acinetobacter baumannii to 12 antibacterial drugs: R
Acinetobacter baumannii; Resistance profile classification F
  Suscepibility of Acinetobacter baumannii to 12 antibacterial drugs: R
Acinetobacter baumannii; [5]
  Suscepibility of Acinetobacter baumannii to 12 antibacterial drugs: R
Acinetobacter baumannii; [6]
  Suscepibility of Acinetobacter baumannii to 12 antibacterial drugs: R
Acinetobacter baumannii; [7]
  Suscepibility of Acinetobacter baumannii to 12 antibacterial drugs: R
Acinetobacter baumannii; [8]
  Suscepibility of Acinetobacter baumannii to 12 antibacterial drugs: R
Acinetobacter baumannii; [9]
  Suscepibility of Acinetobacter baumannii to 12 antibacterial drugs: R
Acinetobacter baumannii; [10]
  Suscepibility of Acinetobacter baumannii to 12 antibacterial drugs: R
Acinetobacter baumannii; [11]
  Suscepibility of Acinetobacter baumannii to 12 antibacterial drugs: R
Acinetobacter baumannii; Resistance profile classification N
  Suscepibility of Acinetobacter baumannii to 12 antibacterial drugs: R
Acinetobacter baumannii; Resistance profile classification O
  Suscepibility of Acinetobacter baumannii to 12 antibacterial drugs: S
Acinetobacter baumannii; Resistance profile classification P
  Suscepibility of Acinetobacter baumannii to 12 antibacterial drugs: S
Acinetobacter baumannii; Resistance profile classification Q
  Suscepibility of Acinetobacter baumannii to 12 antibacterial drugs: S
Acinetobacter baumannii; Resistance profile classification R
  Suscepibility of Acinetobacter baumannii to 12 antibacterial drugs: S
Acinetobacter baumannii; [12]
  Suscepibility of Acinetobacter baumannii to 12 antibacterial drugs: S

## CN[C@H](CC(C)C)C(=O)N[C@H]1C(=O)N[C@@H](CC(N)=O)C(=O)N[C@H]2C(=O)N[C@H]3C(=O)N[C@H](C(=O)N[C@H](C(=O)O)c4cc(O)cc(O)c4-c4cc3ccc4O)[C@H](O)c3ccc(c(Cl)c3)Oc3cc2cc(c3O[C@@H]2O[C@H](CO)[C@@H](O)[C@H](O)[C@H]2O[C@H]2C[C@](C)(N)[C@H](O)[C@H](C)O2)Oc2ccc(cc2Cl)[C@H]1O [vancomycin]
Enterococcus faecalis; [1]
  Susceptibility of Emterococcus faecalis to 11 antibacterial drugs: S
Enterococcus faecalis; [2]
  Susceptibility of Emterococcus faecalis to 11 antibacterial drugs: S
Enterococcus faecalis; [3]
  Susceptibility of Emterococcus faecalis to 11 antibacterial drugs: S
Enterococcus faecalis; [4]
  Susceptibility of Emterococcus faecalis to 11 antibacterial drugs: S
Enterococcus faecalis; Resistance profile classification F (first line so labelled, r12)
  Susceptibility of Emterococcus faecalis to 11 antibacterial drugs: S
Enterococcus faecalis; Resistance profile classification F (second line so labelled, r13)
  Susceptibility of Emterococcus faecalis to 11 antibacterial drugs: S
Enterococcus faecalis; [5]
  Susceptibility of Emterococcus faecalis to 11 antibacterial drugs: S
Enterococcus faecalis; [6]
  Susceptibility of Emterococcus faecalis to 11 antibacterial drugs: S
Enterococcus faecalis; [7]
  Susceptibility of Emterococcus faecalis to 11 antibacterial drugs: S
Enterococcus faecalis; [8]
  Susceptibility of Emterococcus faecalis to 11 antibacterial drugs: S
Enterococcus faecalis; [9]
  Susceptibility of Emterococcus faecalis to 11 antibacterial drugs: S
Enterococcus faecalis; [10]
  Susceptibility of Emterococcus faecalis to 11 antibacterial drugs: S
Enterococcus faecalis; [11]
  Susceptibility of Emterococcus faecalis to 11 antibacterial drugs: S
Enterococcus faecalis; [12]
  Susceptibility of Emterococcus faecalis to 11 antibacterial drugs: S
Streptococcus pneumoniae; Blind 1
  Blind 1 by AST: S
Streptococcus pneumoniae; blind 2
  blind 2 by AST: S

## Amoxicillin-clavulanate
Klebsiella pneumoniae
  Resistance profiles by VITEK2: R: 16
  Resistance profiles by VITEK2: S: 8

## Ampicillin-sulbactam
Klebsiella pneumoniae
  Resistance profiles by VITEK2: R: 15
  Resistance profiles by VITEK2: S: 9

## Cefoperazone-sulbactam
Klebsiella pneumoniae
  Resistance profiles by VITEK2: R: 13
  Resistance profiles by VITEK2: S: 11

## Piperacillin-tazobactam
Klebsiella pneumoniae
  Resistance profiles by VITEK2: R: 13
  Resistance profiles by VITEK2: S: 11
